These results are taken from paper PMC6934184, “Selective DNA-PKcs inhibition extends the therapeutic index of localized radiotherapy and chemotherapy” (The Journal of Clinical Investigation, 2019).

Each structure is given as a SMILES string.

The assay concerns the target T1, RPS6KA4 (MSK2) (Homo sapiens, UniProt O75676).
T1 construct: purchased Thermo Fisher Scientific (Life Technologies) SelectScreen
Put plainly: SelectScreen Z'LYTE. Type of assay: biochemical. The essentials:
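NU5455 was profiled across the SelectScreen Broad panel of kinase activity and binding assays. Z'LYTE reactions such as CSF1R ran at apparent Km ATP, while the Adapta CAMK1 assay used ATP listed as 10. Values are given as percent.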

T1 sequence (O75676 whole entry): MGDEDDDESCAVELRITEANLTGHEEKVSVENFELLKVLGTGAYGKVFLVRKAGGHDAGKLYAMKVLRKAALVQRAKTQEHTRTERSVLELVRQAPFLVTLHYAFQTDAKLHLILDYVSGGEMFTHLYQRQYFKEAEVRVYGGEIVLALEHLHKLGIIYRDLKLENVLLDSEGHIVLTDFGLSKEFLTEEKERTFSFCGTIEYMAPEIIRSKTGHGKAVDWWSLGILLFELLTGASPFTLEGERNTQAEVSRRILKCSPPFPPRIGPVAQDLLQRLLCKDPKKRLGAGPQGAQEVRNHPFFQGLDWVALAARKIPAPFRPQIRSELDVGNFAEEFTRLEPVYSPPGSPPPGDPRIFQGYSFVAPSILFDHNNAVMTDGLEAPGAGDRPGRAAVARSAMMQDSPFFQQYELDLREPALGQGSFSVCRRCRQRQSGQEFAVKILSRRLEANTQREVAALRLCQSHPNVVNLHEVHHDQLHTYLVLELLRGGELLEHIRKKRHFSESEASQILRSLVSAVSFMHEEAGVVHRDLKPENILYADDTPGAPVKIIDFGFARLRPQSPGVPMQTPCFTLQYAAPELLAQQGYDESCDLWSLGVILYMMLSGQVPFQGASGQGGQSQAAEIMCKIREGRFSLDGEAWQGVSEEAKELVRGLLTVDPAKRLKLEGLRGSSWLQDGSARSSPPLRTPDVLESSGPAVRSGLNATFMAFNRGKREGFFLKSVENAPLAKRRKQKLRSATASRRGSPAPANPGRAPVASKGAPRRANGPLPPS

As for `CN(C(=O)CN1CCOCC1)c1ccc2sc3c(-c4cccc5c(=O)cc(N6CC7CCC(C6)O7)oc45)cccc3c2c1` [NU5455], the inhibition at 1 µM was found to be 4.2%.

As a reminder, the inhibition is the share of the control response that was lost under treatment. A higher inhibition goes with a response far below the control.
